Consider ten compounds from US11161846B2, “Substituted pyrazolo[4,3-b]pyridines and their use as GluN2B receptor modulators” (JANSSEN PHARMACEUTICA NV, priority 2019, dated 2021).

Series [1] has as its target T1, human GluN1/GluN2B NMDA receptors (Homo sapiens, UniProt Q05586+Q13224).
T1 construct: expressed in transfected cells
The experiment in a line: Calcium flux (FLIPR) assay on cloned human NR1/GluN2B ion channels expressed in mammalian cells, standard assay. The format is cell-based. The settings on record: glutamate ~EC40 and 10 μM glycine, stable cell line with Tet-On induced expression. In a few lines: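 Tet-On-induced stable mammalian line loaded with Calcium 5 dye (0.5 mM MgCl2 loading buffer), then assayed in pH 7.4 buffer with 137 mM NaCl, 4 mM KCl, 2 mM CaCl2. Compound was added for 5 min, then glutamate (~EC40) plus 10 µM glycine for 5 min. FLIPR fluorescence was normalized to control wells.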
Background: A change in cytosolic calcium serves as a functional read-out for many receptors and channels.

Series [2] can be described thus: Liver microsomal stability (extraction ratio). As to conditions: test compound 1 μM; 0.5 mg/mL liver microsomes, NADPH, 37° C.; species not given (method: mouse, rat, and human). The format is in vitro ADME. Here is the method: Protocol for Liver Microsomal Stability (Extraction Ratio)
Liver Microsomal Stability.
Microsomal stability studies (Chrovian et al, “1H-Pyrrolo[3,2-b]pyridine GluN2B-Selective Negative Allosteric Modulators”. ACS Med Chem Lett. 2019 Jan. 10; 10(3):261-266) were conducted on a Biomek® FX Robotic Liquid Handling Workstation (Beckman Coulter, Brea, Calif.), which consists of a 96-channel pipette head, a 12-position workstation deck, and a plate incubator. Test compounds (1 μm) were spiked in a reaction mix consisting of 100 mM potassium phosphate buffer (pH 7.4), 3 mM MgCl2, and 0.5 mg/mL liver microsomes from mouse, rat, and human (BD Gentest). The reaction was brought to 37° C. and initiated by adding NADPH to a final concentration of 1 mM. After mixing on the plate deck, 50 μL aliquots were excised from the reaction plate at 0, 5, 10, 20, 40, and 60 min and quenched with four volumes of acetonitrile spiked with […] of the internal standard phenytoin. Quenched plates were centrifuged at 5700 rpm for 10 min at 4° C., and supernatant was diluted 1:3 in water before LC/MS/MS analysis. The compound half-lives were derived from plots of the ln of percent remaining compound over time to determine the intrinsic clearance. The predicted hepatic clearance was derived from the intrinsic clearance value using equations from the well-stirred model (Current Drug Metabolism, 2008, 9, 940-951), where no correction was made plasma protein binding and the blood to plasma concentration ratio was assumed to be one. The extraction ratio (ER) was calculated by dividing the predicted hepatic clearance by species blood flow (Q), where Q is 90, 55, and 21.7 mL/min/kg for mouse, rat and human, respectively.
(Microsomes from liver hold many membrane-bound enzymes, among them those of drug oxidation.)

By IC50 is commonly meant the midpoint of a concentration-inhibition curve.

T1 sequence (Q13224 27-1484, other chains not shown): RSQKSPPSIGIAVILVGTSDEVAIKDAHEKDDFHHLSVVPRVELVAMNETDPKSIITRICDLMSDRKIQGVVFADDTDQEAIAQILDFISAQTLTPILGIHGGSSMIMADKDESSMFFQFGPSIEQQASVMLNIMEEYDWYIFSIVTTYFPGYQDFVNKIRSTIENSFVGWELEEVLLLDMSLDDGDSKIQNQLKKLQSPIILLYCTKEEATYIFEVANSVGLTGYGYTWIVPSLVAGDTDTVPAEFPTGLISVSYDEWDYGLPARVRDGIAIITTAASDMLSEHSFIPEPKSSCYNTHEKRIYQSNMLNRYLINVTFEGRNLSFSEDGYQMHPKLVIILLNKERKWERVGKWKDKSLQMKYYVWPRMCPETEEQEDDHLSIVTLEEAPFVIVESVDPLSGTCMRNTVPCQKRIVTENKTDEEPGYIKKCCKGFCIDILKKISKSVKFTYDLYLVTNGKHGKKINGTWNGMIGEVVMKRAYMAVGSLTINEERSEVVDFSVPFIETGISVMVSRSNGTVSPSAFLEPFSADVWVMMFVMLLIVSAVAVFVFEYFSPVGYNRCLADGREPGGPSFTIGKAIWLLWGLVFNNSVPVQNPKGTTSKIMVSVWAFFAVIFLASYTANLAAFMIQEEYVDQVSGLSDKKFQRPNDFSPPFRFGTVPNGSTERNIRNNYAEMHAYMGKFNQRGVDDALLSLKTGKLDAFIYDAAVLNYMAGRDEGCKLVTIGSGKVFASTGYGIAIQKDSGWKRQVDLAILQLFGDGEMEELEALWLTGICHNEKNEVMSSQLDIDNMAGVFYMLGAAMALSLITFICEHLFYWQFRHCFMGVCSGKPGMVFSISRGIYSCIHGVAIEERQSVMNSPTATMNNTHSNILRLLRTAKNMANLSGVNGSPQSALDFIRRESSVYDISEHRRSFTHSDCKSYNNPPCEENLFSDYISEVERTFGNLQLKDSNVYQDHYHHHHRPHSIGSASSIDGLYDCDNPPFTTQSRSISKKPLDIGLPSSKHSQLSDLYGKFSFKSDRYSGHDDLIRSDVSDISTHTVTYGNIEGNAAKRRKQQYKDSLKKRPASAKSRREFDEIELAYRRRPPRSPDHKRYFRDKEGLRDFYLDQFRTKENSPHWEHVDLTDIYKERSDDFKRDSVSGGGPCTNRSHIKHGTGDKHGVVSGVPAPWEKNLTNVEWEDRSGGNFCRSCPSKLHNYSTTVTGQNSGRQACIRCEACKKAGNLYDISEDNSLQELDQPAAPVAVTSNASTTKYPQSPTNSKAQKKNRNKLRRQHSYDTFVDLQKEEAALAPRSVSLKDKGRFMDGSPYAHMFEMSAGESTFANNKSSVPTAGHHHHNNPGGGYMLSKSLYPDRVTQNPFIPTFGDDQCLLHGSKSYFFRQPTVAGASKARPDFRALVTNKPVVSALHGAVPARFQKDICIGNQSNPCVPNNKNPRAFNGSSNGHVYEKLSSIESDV

In the case of `CC(=O)Cn1ncc2ncc(-c3ccc(F)c(OC(F)F)c3)cc21` [Example 25, 1-[6-[3-(Difluoromethoxy)-4-fluoro-phenyl]pyrazolo[4,3-b]pyridin-1-yl]propan-2-one], the IC50 in series [1] amounted to 34 nM. In addition, the “Extraction Ratio @ 1 μM” value in series [2] is listed as 0.64.
On the same counts, the results for `CC[S+]([O-])Cn1ncc2ncc(-c3ccc(F)c(C(F)F)c3)cc21` (single isomer, unassigned) [Example 85, (R*)-6-(3-(Difluoromethyl)-4-fluorophenyl)-1-((ethylsulfinyl)methyl)-1H-pyrazolo[4,3-b]pyridine] are 66 nM and 0.46.
For the compound `CCC(=O)Cn1ncc2ncc(-c3cc(F)c(F)c(F)c3)cc21` [Example 42, 1-[6-(3,4,5-Trifluorophenyl)pyrazolo[4,3-b]pyridin-1-yl]butan-2-one], the IC50 in series [1] was 27 nM. Also, in series [2], the “Extraction Ratio @ 1 μM” value is 0.63.
Turning to `CCC(=O)Cn1ncc2ncc(-c3ccc(F)c(C(F)F)c3)cc21` [Example 4, 1-[6-[3-(Difluoromethyl)-4-fluoro-phenyl]pyrazolo[4,3-b]pyridin-1-yl]butan-2-one], the IC50 in series [1] is 10 nM. Further, the “Extraction Ratio @ 1 μM” value in series [2] amounted to 0.66.
In the case of `CCC(=O)Cn1nc(C)c2ncc(-c3ccc(F)c(C(F)F)c3)cc21` [Example 36, 1-(6-(3-(Difluoromethyl)-4-fluorophenyl)-3-methyl-1H-pyrazolo[4,3-b]pyridin-1-yl)butan-2-one], in series [1], the IC50 amounted to 27 nM. In series [2], the “Extraction Ratio @ 1 μM” value stood at 0.72.
As for `CCN1CC(Cn2ncc3ncc(-c4ccc(F)c(C(F)F)c4)cc32)OC1=O` (racemic) [Example 131, (RS)-5-[[6-[3-(Difluoromethyl)-4-fluoro-phenyl]pyrazolo[4,3-b]pyridin-1-yl]methyl]-3-ethyl-oxazolidin-2-one], in series [1], the half-maximal inhibitory concentration (IC50) was determined as 193 nM. Further, in series [2], the “Extraction Ratio @ 1 μM” value is reported as 0.58.
`CC[S+]([O-])Cn1ncc2ncc(-c3cccc(C(F)(F)F)c3F)cc21` (racemic) [Example 86, (RS)-1-(Ethylsulfinylmethyl)-6-[2-fluoro-3-(trifluoromethyl)phenyl]pyrazolo[4,3-b]pyridine]: the IC50 in series [1] stood at 80 nM. Moreover, the “Extraction Ratio @ 1 μM” value in series [2] is listed as 0.50.
Take `CCC(=O)Cn1ncc2ncc(-c3cccc(C(F)(F)F)c3F)cc21` [Example 38, 1-[6-[2-Fluoro-3-(trifluoromethyl)phenyl]pyrazolo[4,3-b]pyridin-1-yl]butan-2-one]: the IC50 in series [1] is 30 nM. In series [2], the “Extraction Ratio @ 1 μM” value stood at 0.61.
As for `Cc1c(F)ccc(-c2cnc3cnn(CC(=O)C4CC4)c3c2)c1C` [Example 78, 1-Cyclopropyl-2-[6-(4-fluoro-2,3-dimethyl-phenyl)pyrazolo[4,3-b]pyridin-1-yl]ethanone], the IC50 in series [1] came to 85 nM. Also, in series [2], the “Extraction Ratio @ 1 μM” value is reported as 0.52.
Consider `O=C(Cn1ncc2ncc(-c3cccc(C(F)F)c3)cc21)C1CC1` [Example 61, 1-Cyclopropyl-2-[6-[3-(difluoromethyl)phenyl]pyrazolo[4,3-b]pyridin-1-yl]ethanone], for which the IC50 in series [1] stood at 12 nM. Moreover, the “Extraction Ratio @ 1 μM” value in series [2] is reported as 0.43.
